Data from publication PMC10046961, “High-Throughput Screening Assay for Detecting Drug-Induced Changes in Synchronized Neuronal Oscillations and Potential Seizure Risk Based on Ca^2+ Fluorescence Measurements in Human Induced Pluripotent Stem Cell (hiPSC)-Derived Neuronal 2D and 3D Cultures” (Cells, 2023).
Like-named read-outs stand apart in the source and are kept apart here.

Tests used:
[1] = test system: hiPSC-derived neurons co-cultured with human primary astrocytes in 2D; assay: Ca2+ transient oscillation assay (FDSS), 2D co-culture; assay type: cell-based; details: for activation at 1.11 µM / activation at 3.33 µM / activation at 10 µM / activation at 30 µM: Homo sapiens, 1 h, 60 min
From the text: (§1) In this study, we used cryopreserved excitatory neurons that were differentiated from human induced pluripotent stem cells (hiPSCs; Cat #: EX-SeV-CW50065) (Elixirgen Scientific, Inc., Baltimore, MD, USA). The hiPSCs used, namely, CW50065 were derived from a healthy person and distributed by the California Institute of Regenerative Medicine Human Induced Pluripotent Stem Cell Repository. Human iPSC-derived excitatory neurons were differentiated from CW50065 using a proprietary cocktail of differentiation-inducing factors called Quick-Neuron™ EX-SeV (Batch number: EX-SeV-CW50065-L; Elixirgen Scientific, Inc.), cryopreserved 3 days after differentiation induction and distributed. Human iPSC-derived excitatory neurons were recovered from cryopreservation and maintained essentially as instructed by the manufacturer.
(§2) Cryopreserved human primary astrocytes (#N7805100, Thermo Fisher Scientific, Waltham, MA, USA) were recovered as instructed by the manufacturer and seeded in a 10 cm dish at the density of 2,000,000 cells. The culture was maintained using the Human Astrocytes Kit (#N7805200, Thermo Fisher Scientific) for 12 days. Half of the culture medium was replaced with fresh medium every 2–3 days during the culture period. These astrocytes were harvested using StemPro™ Accutase™ Cell Dissociation Reagent (#A1110501, Thermo Fisher Scientific) when they reached confluency. These cells were cryopreserved in STEM-CELLBANKER® GMP grade (ZENOGEN PHARMA, Kohriyama, Fukushima Japan) at the density of 2,000,000 cells per vial as working stocks for co-culture with neurons in 2D and 3D conditions described below. After a working stock was recovered, astrocytes were directly mixed with hiPSC-derived neurons for plating without further expansion.
Live neurons (hiPSC neurons) and human primary astrocytes were recovered from cryopreservation as described above and seeded in each well of 384-well plates at the density of 10,000 cells (HiPSC-cortical neurons) and human primary astrocytes at 2500 cells (ratio 4:1). These co-cultures were maintained under the medium conditions recommended by the manufacturer, namely Medium N(G2P), to complete the differentiation of excitatory neurons for the first week. […] Half of the culture medium was replaced with fresh medium every 3–4 days during the culture period.
After the incubation, the culture medium containing Cal-520 was replaced with 50 μL of HBSS supplemented with 0.1 mM MgCl2, 2 mM CaCl2, 10 mM HEPES, and 10 mM glucose and incubated at 37 ℃ for 15 min.
(§3) Prior to the fluorescence measurements, all wells to be measured were treated with 0.04% dimethyl sulfoxide (DMSO) to stabilize the oscillation signal. The first recording started 10 min after the addition of DMSO for each plate for 20 min. The effects of the test compound were recorded again starting 60 min after the administration of compounds, for 20 min.
Twenty-five compounds (Table 1) were first dissolved in either DMSO (most compounds) or distilled water depending on the compound, and further diluted with PBS to produce stock solutions concentrated 10-fold. […] The final concentration of DMSO was adjusted to 0.1%. Changes in the fluorescence intensity (FI) produced by Ca^2+ flux were measured at 37 °C for all wells of a 384-well plate simultaneously using the FDSS/µCell system (#C13299, Hamamatsu Photonics, Hamamatsu, Shizuoka, Japan). The excitation and the emission wavelengths were 470 nm and 540 nm, respectively. The recording duration was 20 min with a sampling frequency of 2 Hz for cells cultured under 2D conditions and 10 Hz for cells cultured under 3D conditions.

[2] = test system: hiPSC-derived neurons co-cultured with human primary astrocytes in 3D; assay: Ca2+ transient oscillation assay (FDSS), 3D spheroids; assay type: cell-based; details: 60 min
From the text: as §1, §2
We used U-shaped-bottom 96-well plates (#174925, Thermo Fisher Scientific) without any prior coating to make a spheroid in each well. Neurons and astrocytes were seeded and maintained as described for 2D cultures, except for the following modifications. First, neurons and astrocytes were seeded in each well of the 96-well plates at the density of 8000 hiPSC neurons with 8000 human primary astrocytes (8000)/well (ratio 1:1). Second, when the differentiation of excitatory neurons was completed one week after seeding, cells were fed with BrainPhys^TM Neuronal Medium (#05793, […] Technologies, Vancouver, BC, Canada) supplemented with 2% SM1 Neuronal Supplement, 1% N2 Supplement-A, and 10% Neuron culture medium for 5 weeks.
Cells maintained as spheroids (3D) in the U-shaped-bottom 96-well plates were transferred into 384-well spheroid plates (#4516, Merck, Corning, NY, USA) with 25 µL of the culture medium. A Ca^2+-indicating dye solution including […] was prepared using the EarlyTox™ Cardiotoxicity Kit (#R8211, Molecular Devices, LLC, San Jose, CA, USA) according to the manufacturer. Then, the same volume of the dye solution was dispensed into each well.
as §3
Twenty-five compounds (Table 1) were first dissolved in either DMSO (most compounds) or distilled water depending on the compound, and further diluted with PBS to produce stock solutions concentrated 10-fold. Then, 5 μL of each compound solution was injected into each well using an automatic pipetting robot (#4505, ASSIST PLUS pipetting robot, Integra Biosciences Corp., Hudson, NH, USA), so that the final concentration of each compound was 1-fold nominal in the well.

[3] = read-out: Area under the curve - 2D Mean
[4] = read-out: Peak amplitude - 2D Mean
[5] = read-out: Peak-to-peak interval - 2D Mean

## OC(c1cc(C(F)(F)F)nc2c(C(F)(F)F)cccc12)C1CCCCN1 (centres unmarked) [Mefloquine]
[1]; 2D format
  effect on peak number / Ca2+ neuronal oscillations, in words: significantly reduced peak number
[1]; [3]
  activation at 1.11 µM: 14.8%
  activation at 3.33 µM: -47.2%
  activation at 10 µM: -100%
  activation at 30 µM: -100%
[1]; read-out: Peak Number—2D Mean
  activation at 1.11 µM: -30.8%
  activation at 3.33 µM: 16.2%
  activation at 10 µM: -100%
  activation at 30 µM: -100%
[1]; [4]
  activation at 1.11 µM: 0.5%
  activation at 3.33 µM: -21.2%
  activation at 10 µM: -100%
  activation at 30 µM: -100%
[1]; read-out: Peak width - 2D Mean
  activation at 1.11 µM: 15.8%
  activation at 3.33 µM: -47%
  activation at 10 µM: -100%
  activation at 30 µM: -100%
[1]; [5]
  activation at 1.11 µM: 25%
  activation at 3.33 µM: 48.2%
  activation at 10 µM: -100%
  activation at 30 µM: -100%
[2]; 1.11 µM
  Area under the curve - 3D Mean: 159.0 % change from baseline
  Peak Number—3D Mean: 2.8 % change from baseline
  Peak amplitude - 3D Mean: 149.7 % change from baseline
  Peak width - 3D Mean: 2.6 % change from baseline
  Peak-to-peak interval - 3D Mean: 7.1 % change from baseline
[2]; 3.33 µM
  Area under the curve - 3D Mean: 143.4 % change from baseline
  Peak Number—3D Mean: −11.1 % change from baseline
  Peak amplitude - 3D Mean: 139.0 % change from baseline
  Peak width - 3D Mean: 1.4 % change from baseline
  Peak-to-peak interval - 3D Mean: 1.7 % change from baseline
[2]; 10 µM
  Area under the curve - 3D Mean: 135.6 % change from baseline
  Peak Number—3D Mean: 7.2 % change from baseline
  Peak amplitude - 3D Mean: 135.0 % change from baseline
  Peak width - 3D Mean: −1.5 % change from baseline
  Peak-to-peak interval - 3D Mean: 12.8 % change from baseline
[2]; 30 µM
  Area under the curve - 3D Mean: 74.4 % change from baseline
  Peak Number—3D Mean: −3.7 % change from baseline
  Peak amplitude - 3D Mean: 99.9 % change from baseline
  Peak width - 3D Mean: −10.9 % change from baseline
  Peak-to-peak interval - 3D Mean: 8.3 % change from baseline
